Measured values reported in ChEMBL document CHEMBL1909294, “Translating clinical findings into knowledge in drug safety evaluation--drug induced liver injury prediction system (DILIps)” (PLoS Comput Biol, 2011).

Tests used:
Hepatotoxicity [1] = tested on: Hepatotoxicity;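 on HepSE cholelithiasis: hepatic side effect score for cholelithiasis, drawn from the DILIps training data for predicting drug-induced liver injury; call rule not given here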;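 on HepSE cirrhosis: cirrhosis hepatic side effect score taken from the DILIps (drug-induced liver injury prediction) training set; call rule not given here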;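 on HepSE elevated liver function tests: hepatic side effect score for raised liver function tests, as recorded in the DILIps training set used for predicting drug-induced liver injury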;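 on HepSE hepatic necrosis: score of hepatic side effects for hepatic necrosis, drawn from the training data of DILIps, a prediction system for drug-induced liver injury; call rule not given here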;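 on HepSE hepatomegaly: hepatic side effect score for hepatomegaly, taken from the training set of the DILIps drug-induced liver injury prediction system; call rule not given here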;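 on HepSE jaundice: Jaundice-related hepatic side-effect score drawn from the training data of the DILIps (drug-induced liver injury prediction system); call rule not given here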; on HepSE liver disease: call rule not given here
Hepatotoxicity [2] = tested on: Hepatotoxicity; remark: listed apart in the source;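 on HepSE cholelithiasis: hepatic side effect score for cholelithiasis, drawn from the DILIps training data for predicting drug-induced liver injury; call rule not given here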;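 on HepSE cirrhosis: cirrhosis hepatic side effect score taken from the DILIps (drug-induced liver injury prediction) training set; call rule not given here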;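 on HepSE elevated liver function tests: hepatic side effect score for raised liver function tests, as recorded in the DILIps training set used for predicting drug-induced liver injury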;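 on HepSE hepatic necrosis: score of hepatic side effects for hepatic necrosis, drawn from the training data of DILIps, a prediction system for drug-induced liver injury; call rule not given here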;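 on HepSE hepatomegaly: hepatic side effect score for hepatomegaly, taken from the training set of the DILIps drug-induced liver injury prediction system; call rule not given here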; on HepSE liver disease: call rule not given here
Hepatotoxicity [3] = tested on: Hepatotoxicity; remark: listed apart in the source;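 on HepSE cholelithiasis: hepatic side effect score for cholelithiasis, drawn from the DILIps training data for predicting drug-induced liver injury; call rule not given here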;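 on HepSE cirrhosis: cirrhosis hepatic side effect score taken from the DILIps (drug-induced liver injury prediction) training set; call rule not given here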;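 on HepSE elevated liver function tests: hepatic side effect score for raised liver function tests, as recorded in the DILIps training set used for predicting drug-induced liver injury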;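 on HepSE hepatic necrosis: score of hepatic side effects for hepatic necrosis, drawn from the training data of DILIps, a prediction system for drug-induced liver injury; call rule not given here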;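 on HepSE hepatomegaly: hepatic side effect score for hepatomegaly, taken from the training set of the DILIps drug-induced liver injury prediction system; call rule not given here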; on HepSE liver disease: call rule not given here
Hepatotoxicity [4] = tested on: Hepatotoxicity; remark: listed apart in the source;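 on HepSE cholelithiasis: hepatic side effect score for cholelithiasis, drawn from the DILIps training data for predicting drug-induced liver injury; call rule not given here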;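 on HepSE cirrhosis: cirrhosis hepatic side effect score taken from the DILIps (drug-induced liver injury prediction) training set; call rule not given here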;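 on HepSE elevated liver function tests: hepatic side effect score for raised liver function tests, as recorded in the DILIps training set used for predicting drug-induced liver injury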;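 on HepSE hepatic necrosis: score of hepatic side effects for hepatic necrosis, drawn from the training data of DILIps, a prediction system for drug-induced liver injury; call rule not given here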;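 on HepSE hepatomegaly: hepatic side effect score for hepatomegaly, taken from the training set of the DILIps drug-induced liver injury prediction system; call rule not given here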; on HepSE liver disease: call rule not given here
Hepatotoxicity [5] = tested on: Hepatotoxicity; remark: listed apart in the source; on HepSE liver disease: call rule not given here
Hepatotoxicity [6] = tested on: Hepatotoxicity; remark: listed apart in the source; on HepSE liver disease: call rule not given here
Hepatotoxicity [7] = tested on: Hepatotoxicity; remark: listed apart in the source
Hepatotoxicity [8] = tested on: Hepatotoxicity; remark: listed apart in the source
Hepatotoxicity [9] = tested on: Hepatotoxicity; remark: listed apart in the source
Hepatotoxicity [10] = tested on: Hepatotoxicity; remark: listed apart in the source
Hepatotoxicity [11] = tested on: Hepatotoxicity; remark: listed apart in the source
Hepatotoxicity [12] = tested on: Hepatotoxicity; remark: listed apart in the source
Hepatotoxicity [13] = tested on: Hepatotoxicity; remark: listed apart in the source
Hepatotoxicity [14] = tested on: Hepatotoxicity; remark: listed apart in the source

Row | Compound | HepSE_liver disease (Hepatotoxicity [1]) | HepSE_cirrhosis (Hepatotoxicity [2]) | HepSE_hepatomegaly (Hepatotoxicity [3]) | HepSE_hepatic necrosis (Hepatotoxicity [4]) | HepSE_hepatitis (Hepatotoxicity [5]) | HepSE_elevated liver function tests (Hepatotoxicity [6]) | HepSE_cholelithiasis (Hepatotoxicity [7]) | HepSE_jaundice (Hepatotoxicity [8]) | HepSE_liver function tests abnormal (Hepatotoxicity [9]) | HepSE_Combined Scores (Hepatotoxicity [10]) | HepSE_hepatic failure (Hepatotoxicity [11]) | HepSE_cholecystitis (Hepatotoxicity [12]) | HepSE_liver fatty (Hepatotoxicity [13]) | HepSE_bilirubinemia (Hepatotoxicity [14]) | also measured
1 | O=C(O)O [BICARBONATE] |  |  |  |  |  |  |  |  |  |  |  |  |  |  | HepSE_liver disease (Hepatotoxicity [1]; Liver): 0; HepSE_cirrhosis (Hepatotoxicity [2]; Liver): 0; HepSE_hepatomegaly (Hepatotoxicity [3]; Liver): 0; HepSE_hepatic necrosis (Hepatotoxicity [4]; Liver): 0; HepSE_hepatitis (Hepatotoxicity [5]; Liver): 0; HepSE_elevated liver function tests (Hepatotoxicity [6]; Liver): 0; HepSE_cholelithiasis (Hepatotoxicity [7]; Liver): 0; HepSE_jaundice (Hepatotoxicity [8]; Liver): 0; HepSE_liver function tests abnormal (Hepatotoxicity [9]; Liver): 0; HepSE_Combined Scores (Hepatotoxicity [10]; Liver): 0; HepSE_hepatic failure (Hepatotoxicity [11]; Liver): 0; HepSE_cholecystitis (Hepatotoxicity [12]; Liver): 0; HepSE_liver fatty (Hepatotoxicity [13]; Liver): 0; HepSE_bilirubinemia (Hepatotoxicity [14]; Liver): 0
2 | CC(C(=O)O)c1ccc(-c2ccccc2)c(F)c1 (configuration not stated) [FLURBIPROFEN] | 0 | 0 | 0 | 0 | 1 | 0 | 0 | 1 | 0 | 4 | 1 | 1 | 0 | 0 | 
3 | CCc1c(C)[nH]c2c1C(=O)C(CN1CCOCC1)CC2 (configuration not stated) [MOLINDONE] | 0 | 0 | 0 | 0 | 0 | 0 | 0 | 0 | 0 | 0 | 0 | 0 | 0 | 0 | 
4 | CC(C)(C)NCC(O)c1ccc(O)c(CO)n1 (configuration not stated) [PIRBUTEROL] | 0 | 0 | 0 | 0 | 0 | 0 | 0 | 0 | 0 | 0 | 0 | 0 | 0 | 0 | 
5 | Cc1cc(C2CCCCC2)n(O)c(=O)c1 [CICLOPIROX] | 0 | 0 | 0 | 0 | 0 | 0 | 0 | 0 | 0 | 0 | 0 | 0 | 0 | 0 | 
6 | CC(=O)O.NCc1ccc(S(N)(=O)=O)cc1 [MAFENIDE ACETATE] | 0 | 0 | 0 | 0 | 0 | 0 | 0 | 0 | 0 | 0 | 0 | 0 | 0 | 0 | 
7 | Sc1ncnc2nc[nH]c12 [MERCAPTOPURINE ANHYDROUS] |  |  |  |  |  |  |  |  |  |  |  |  |  |  | HepSE_liver disease (Hepatotoxicity [1]; Liver): 0; HepSE_cirrhosis (Hepatotoxicity [2]; Liver): 0; HepSE_hepatomegaly (Hepatotoxicity [3]; Liver): 0; HepSE_hepatic necrosis (Hepatotoxicity [4]; Liver): 0; HepSE_hepatitis (Hepatotoxicity [5]; Liver): 0; HepSE_elevated liver function tests (Hepatotoxicity [6]; Liver): 0; HepSE_cholelithiasis (Hepatotoxicity [7]; Liver): 0; HepSE_jaundice (Hepatotoxicity [8]; Liver): 0; HepSE_liver function tests abnormal (Hepatotoxicity [9]; Liver): 0; HepSE_Combined Scores (Hepatotoxicity [10]; Liver): 0; HepSE_hepatic failure (Hepatotoxicity [11]; Liver): 0; HepSE_cholecystitis (Hepatotoxicity [12]; Liver): 0; HepSE_liver fatty (Hepatotoxicity [13]; Liver): 0; HepSE_bilirubinemia (Hepatotoxicity [14]; Liver): 0
8 | NCC(CC(=O)O)c1ccc(Cl)cc1 (configuration not stated) [BACLOFEN] | 0 | 0 | 0 | 0 | 0 | 0 | 0 | 0 | 0 | 0 | 0 | 0 | 0 | 0 | 
9 | CS(=O)(=O)c1ccc(C2=C(c3ccccc3)C(=O)OC2)cc1 [ROFECOXIB] | 0 | 0 | 0 | 0 | 1 | 0 | 0 | 1 | 0 | 4 | 1 | 1 | 0 | 0 | 
10 | C[C@]12CCC(=O)C=C1CC[C@@H]1[C@@H]2C(=O)C[C@@]2(C)[C@H]1CC[C@]2(O)C(=O)CO [CORTISONE] | 0 | 0 | 0 | 0 | 0 | 0 | 0 | 0 | 0 | 0 | 0 | 0 | 0 | 0 | 
11 | OC(CCN1CCCCC1)(c1ccccc1)C1CC2C=CC1C2 (configuration not stated) [BIPERIDEN] | 0 | 0 | 0 | 0 | 0 | 0 | 0 | 0 | 0 | 0 | 0 | 0 | 0 | 0 | 
12 | O=P(O)(O)C(O)(Cc1cccnc1)P(=O)(O)O [RISEDRONIC ACID] | 0 | 0 | 0 | 0 | 0 | 0 | 0 | 0 | 0 | 0 | 0 | 0 | 0 | 0 | 
13 | FC(F)(F)C(Cl)Br (configuration not stated) [HALOTHANE] | 0 | 0 | 0 | 1 | 0 | 0 | 0 | 0 | 0 | 1 | 0 | 0 | 0 | 0 | 
